US20230310464A1, “USE OF C[…] THE TREATMENT OF SEIZURES ASSOCIATED WITH RARE […] SYNDROMES RELATED TO BRAIN INJURY” (GW Research Limited, priority 2020, published 2023)
Entries after “also recorded” stand apart in the source; their conditions may differ.

System: seizures associated with hypoxic ischaemic encephalopathy (HIE) or anoxia at birth
Assay: Open label, expanded-access program: seizure frequency recorded by caregivers in a diary, relative to baseline
Type: in vivo, human
Set-up: reduction in tonic seizures over the treatment period / reduction in spasms over the treatment period / reduction in absence seizures over the treatment period / reduction in tonic-clonic seizures over the treatment period / reduction in myoclonic seizures over the treatment period: concentration or dose not given beside the values; Seizure frequency, Tonic / Seizure frequency, Spasm / Seizure frequency, Absence / Seizure frequency, Tonic-clonic / Seizure frequency, Focal with impairment / Seizure frequency, Atonic / Seizure frequency, Focal without impairment / Seizure frequency, Focal secondary generalisation / Seizure frequency, Myoclonic: unit not given here
Protocol: Subjects were required to be on one or more AEDs at stable doses for a minimum of two weeks prior to baseline and to have stable vagus nerve stimulation (VNS) settings and ketogenic diet ratios for a minimum of four weeks prior to baseline.
Dose was then increased weekly by 5 mg/kg/day to a goal of 20 to 25 mg/kg/day.
Modifications were made to concomitant AEDs as per clinical indication.
Seizure frequency, intensity, and duration were recorded by caregivers in a diary during a baseline period of at least 28 days. Changes in seizure frequency relative to baseline were calculated after at least 2 weeks and at defined timepoints of treatment.
Patients may be defined as responders if they had more than 50% reduction in seizure frequency compared to baseline. The percent change in seizure frequency was calculated as follows: […]
The percent change of seizure frequency may be calculated for any time interval where seizure number has been recorded. For the purpose of this example the percent change of seizure frequency for the end of the treatment period was calculated as follows: […]

[1] = Patient 4, 48 weeks, CBD 15.0 mg/kg/day
[2] = Patient 4, 60 weeks, CBD 20.0 mg/kg/day
[3] = Patient 4, treated for 60 weeks, vs baseline
[4] = Patient 5, 2 weeks, CBD 10.0 mg/kg/day
[5] = Patient 5, 4 weeks, CBD 20.0 mg/kg/day
[6] = Patient 5, 8 weeks, CBD 25.0 mg/kg/day
[7] = Patient 5, 12 weeks, CBD 25.0 mg/kg/day
[8] = Patient 5, 16 weeks, CBD 25.0 mg/kg/day
[9] = Patient 6, 2 weeks, CBD 10.0 mg/kg/day
[10] = Patient 6, treated for 2 weeks, vs baseline
[11] = Patient 7, 2 weeks, CBD 5.0 mg/kg/day
[12] = Patient 7, 4 weeks, CBD 10.0 mg/kg/day
[13] = Patient 7, 8 weeks, CBD 20.0 mg/kg/day
[14] = Patient 7, 12 weeks, CBD 25.0 mg/kg/day
[15] = Patient 9, 2 weeks, CBD 15.0 mg/kg/day
[16] = Patient 9, 4 weeks, CBD 20.0 mg/kg/day
[17] = Patient 9, 8 weeks, CBD 25.0 mg/kg/day
[18] = Patient 9, 12 weeks, CBD 25.0 mg/kg/day
[19] = Patient 9, 16 weeks, CBD 25.0 mg/kg/day
[20] = Patient 9, 24 weeks, CBD 25.0 mg/kg/day
[21] = Patient 9, 36 weeks, CBD 25.0 mg/kg/day
[22] = Patient 9, 48 weeks, CBD 25.0 mg/kg/day
[23] = Patient 9, 60 weeks, CBD 25.0 mg/kg/day
[24] = Patient 9, 72 weeks, CBD 25.0 mg/kg/day
[25] = Patient 9, 84 weeks, CBD 25.0 mg/kg/day
[26] = Patient 9, 108 weeks, CBD 25.0 mg/kg/day
[27] = Patient 9, 132 weeks, CBD 25.0 mg/kg/day

C=C(C)[C@@H]1CCC(C)=C[C@H]1c1c(O)cc(CCCCC)cc1O [CBD, cannabidiol]
Seizure frequency, Tonic-clonic (Patient 4, 36 weeks, CBD 15.0 mg/kg/day): 0 | Seizure frequency, Atonic [1]: 0 | Seizure frequency, Tonic [1]: 0 | Seizure frequency, Tonic-clonic [1]: 3.3 | Seizure frequency, Atonic [2]: 4.0 | Seizure frequency, Tonic [2]: 0 | Seizure frequency, Tonic-clonic [2]: 19.3 | reduction in tonic seizures over the treatment period [3]: 100% | reduction in tonic-clonic seizures over the treatment period [3]: 87.1% | Seizure frequency, Focal secondary generalisation [4]: 114.0 | Seizure frequency, Focal without impairment [4]: 0 | Seizure frequency, Focal secondary generalisation [5]: 106.0 | Seizure frequency, Focal without impairment [5]: 2.0 | Seizure frequency, Focal secondary generalisation [6]: 112.8 | Seizure frequency, Focal without impairment [6]: 1.9 | Seizure frequency, Focal secondary generalisation [7]: 111.0 | Seizure frequency, Focal without impairment [7]: 2.1 | Seizure frequency, Focal secondary generalisation [8]: 125.5 | Seizure frequency, Focal without impairment [8]: 3.9 | reduction in seizures over the treatment period (in words) (Patient 5, treated for 16 weeks): did not experience a reduction in seizures | Seizure frequency, Spasm [9]: 100.0 | Seizure frequency, Tonic-clonic [9]: 10.0 | reduction in spasms over the treatment period [10]: 53.9% | reduction in tonic-clonic seizures over the treatment period [10]: 28.6% | Seizure frequency, Focal with impairment [11]: 70.0 | Seizure frequency, Myoclonic [11]: 58.0 | Seizure frequency, Tonic-clonic [11]: 74.0 | Seizure frequency, Focal with impairment [12]: 78.0 | Seizure frequency, Myoclonic [12]: 18.0 | Seizure frequency, Tonic-clonic [12]: 102.0 | Seizure frequency, Focal with impairment [13]: 65.3 | Seizure frequency, Myoclonic [13]: 65.3 | Seizure frequency, Tonic-clonic [13]: 86.7 | Seizure frequency, Focal with impairment [14]: 71.0 | Seizure frequency, Myoclonic [14]: 7.0 | Seizure frequency, Tonic-clonic [14]: 65.0 | reduction in myoclonic seizures over the treatment period (Patient 7, treated for 12 weeks, vs baseline): 30% | Seizure frequency, Absence (Patient 8, 4 weeks, CBD 5.0 mg/kg/day): 5376.0 | Seizure frequency, Absence (Patient 8, 8 weeks, CBD 5.0 mg/kg/day): 4803.0 | Seizure frequency, Absence (Patient 8, 12 weeks, CBD 10.0 mg/kg/day): 3514.0 | Seizure frequency, Absence (Patient 8, 24 weeks, CBD 15.0 mg/kg/day): 4284.0 | Seizure frequency, Absence (Patient 8, 36 weeks, CBD 20.0 mg/kg/day): 2989.3 | Seizure frequency, Absence (Patient 8, 48 weeks, CBD 25.0 mg/kg/day): 3360.0 | Seizure frequency, Absence (Patient 8, 60 weeks, CBD 25.0 mg/kg/day): 3136.0 | Seizure frequency, Absence (Patient 8, 72 weeks, CBD 25.0 mg/kg/day): 2968.0 | Seizure frequency, Absence (Patient 8, 84 weeks, CBD 25.0 mg/kg/day): 2718.0 | reduction in absence seizures over the treatment period (Patient 8, treated for 84 weeks, vs baseline): 64% | Seizure frequency, Myoclonic [15]: 2.0 | Seizure frequency, Tonic [15]: 118.0 | Seizure frequency, Myoclonic [16]: 1.0 | Seizure frequency, Tonic [16]: 88.0 | Seizure frequency, Myoclonic [17]: 0 | Seizure frequency, Tonic [17]: 48.0 | Seizure frequency, Myoclonic [18]: 0 | Seizure frequency, Tonic [18]: 92.0 | Seizure frequency, Myoclonic [19]: 0 | Seizure frequency, Tonic [19]: 90.0 | Seizure frequency, Myoclonic [20]: 0 | Seizure frequency, Tonic [20]: 142.4 | Seizure frequency, Myoclonic [21]: 0 | Seizure frequency, Tonic [21]: 53.0 | Seizure frequency, Myoclonic [22]: 0 | Seizure frequency, Tonic [22]: 98.0 | Seizure frequency, Myoclonic [23]: 0 | Seizure frequency, Tonic [23]: 95.6 | Seizure frequency, Myoclonic [24]: 0 | Seizure frequency, Tonic [24]: 96.0 | Seizure frequency, Myoclonic [25]: 0 | Seizure frequency, Tonic [25]: 99.2 | Seizure frequency, Myoclonic [26]: 0 | Seizure frequency, Tonic [26]: 69.0 | Seizure frequency, Myoclonic [27]: 0 | Seizure frequency, Tonic [27]: 76.8 | Seizure frequency, Absence (Patient 10, 4 weeks, CBD 5.0 mg/kg/day): 10.0 | Seizure frequency, Absence (Patient 10, 12 weeks, CBD 10.0 mg/kg/day): 610.0 | Seizure frequency, Absence (Patient 10, 24 weeks, CBD 15.0 mg/kg/day): 304.0 | Seizure frequency, Absence (Patient 10, 36 weeks, CBD 20.0 mg/kg/day): 2184.6 | Seizure frequency, Absence (Patient 10, 48 weeks, CBD 25.0 mg/kg/day): 1957.3 | Seizure frequency, Absence (Patient 10, 60 weeks, CBD 25.0 mg/kg/day): 1520.3 | Seizure frequency, Absence (Patient 10, 72 weeks, CBD 25.0 mg/kg/day): 1655.6 | Seizure frequency, Absence (Patient 10, 84 weeks, CBD 25.0 mg/kg/day): 1626.6 | Seizure frequency, Absence (Patient 10, 96 weeks, CBD 25.0 mg/kg/day): 1678.3 | Seizure frequency, Absence (Patient 10, 120 weeks, CBD 25.0 mg/kg/day): 1644.5 | Seizure frequency, Absence (Patient 10, 132 weeks, CBD 25.0 mg/kg/day): 1370.8 | reduction in absence seizures over the treatment period (Patient 10, treated for 132 weeks, vs baseline): 54.3% | time of CBD treatment after which patient became seizure free of tonic seizures (patient #2): 36 weeks | time of CBD treatment after which patient became seizure free of tonic seizures (patient #4): 12 weeks | seizure freedom in patients with tonic seizures (in words) (patients 2 and 4, between 12 and 36 weeks of treatment): completely seizure free | effect on seizures / seizure frequency (in words) (tonic, tonic-clonic, atonic, myoclonic, absence, focal seizures with impairment and spasms, HIE or anoxia at birth): effective in reducing the frequency; also recorded: significantly reduce the number of seizures; also recorded: significant reduction
